{"source": "patent US12497408B2", "about": "“Tetracyclic compounds and methods for the treatment of Zika virus infection” (priority 2021, dated 2025)", "system": "ZIKV", "assay": "ZIKV reporter virus-based antiviral screening on Huh7 cells", "assay_type": "cell-based, Zika virus", "details": "Zika virus, Huh-7, 48 h, Huh7 cells infected with recombinant luciferase reporter ZIKV (MOI about 0.1), luciferase signal", "in_short": "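Huh7 cells in 2% FBS assay medium infected at MOI about 0.1 with Renilla or Nano luciferase ZIKV premixed with nine-point compound dilutions, 48 hrs at 37° C. Luciferase signal normalized to DMSO controls as 100%; viability optionally by CellTiter-Glo with Rlu virus.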", "data": [{"smiles": "COC(=O)N[C@H](C(=O)N1CC2(CC2)C[C@H]1c1nc(Cl)c(-c2cc3c4c(c2)OCc2cc(-c5[nH]c([C@@H]6CC7(CC7)CN6C(=O)[C@@H](NC(=O)OC)C(C)(C)C(F)(F)F)nc5Cl)cc(c2-4)OC3)[nH]1)C(C)(C)C(F)(F)F", "note": "[Compound 61, dimethyl ((2S,2′S)-((6S,6′S)-((5,10-dihydrochromeno[5,4,3-cde]chromene-2,7-diyl)bis(4-chloro-1H-imidazole-5,2-diyl))bis(5-azaspiro[2.4]heptane-6,5-diyl))bis(4,4,4-trifluoro-3,3-dimethyl-1-oxobutane-1,2-diyl))dicarbamate]", "values": [{"measurement": "EC50", "result": 2.8, "unit": "nM"}]}]}
